“Also recorded” adds a separate entry of the source. Ends that are not written are not given here.

This note sets out measurements from patent US9522198B2, “Methods and compositions related to targeting tumors and wounds” (Sanford-Burnham Medical Research Institute, priority 2006, dated 2016).

The subject of one assay is B16F1 tumors. Put plainly: Homing to B16F1 tumors in wild type, fibrinogen knockout and plasma fibronectin-deficient mice. The format is in vivo, mouse. From the text: Knockout mice were employed to study the role of fibrin(ogen) and fibronectin in the homing of the CLT peptides to tumors. Fibrinogen knockout mice are viable (Palumbo, J. S., Kombrinck, K. W., Drew, A. F., Grimes, T. S., Kiser, J. H. Jay L. Degen, J. L. & Bugge, T. H. (2000), Blood 96, 3302-3309) and were used as tumor recipients. Complete absence of fibronectin is lethal, but mice that lack plasma fibronectin can be generated by postnatally deleting the fibronectin gene in the liver (Sakai, T., Johnson, K. J., Murozono, M., Sakai, K., Magnuson, M. A., Wieloch, T., Cronberg, T., Isshiki, A., Erickson, H. P., & Fassler R. (2001) Nat. Med. 7, 324-30). The CLT peptides homed to B16F1 tumors grown in wild type C57BL/6 mice (n=10) producing a fibrillar meshwork (CLT1; FIG. 3D). In contrast, only faint, evenly distributed fluorescence was present in tumors (n=4) grown in the fibrinogen knockout mice (which lack the ability to produce fibrin) (FIG. 3E). […] Unlike in the fibrinogen knockout mice, there was no residual peptide binding to the tumors in the plasma fibronectin-deficient mice (FIG. 3H).
(§1) B16F1 mouse melanoma, Lewis lung carcinoma, C8161 human melanoma, MDA-MB-435 human breast cancer, and PPC-1 human prostate cancer cells (American Type Culture Collection) were maintained in RPMI or DMEM supplemented with 10% FCS. Human tumor cells (1×10^6) were injected into the mammary fat pad or the flank of nude BALB/c nu/nu mice to induce tumors. MMTV PyMT mice were provided by Dr. Robert Oshima (Burnham Institute for Medical Research, La Jolla, Calif.). […]
(§2) The mice were perfused through the heart 3 hours after the peptide injection and tissues removed for examination. […] Tissue fluorescence was quantified using Image-Pro Plus software. At least two images from representative microscopic fields were analyzed from each tissue sample and data from individual mice that received the same treatment (n=2-8) were pooled.

The next assay deals with fibrin(ogen). As to the kind of experiment: Co-localization of injected peptide with fibrin staining in tumor sections. The format is in vivo, mouse. The note with it: MDA-MB-435 xenograft sections, i.v. injected peptide. How it is done: (§3) The mice were perfused through the heart 3 hours after the peptide injection and tissues removed for examination. For fibrin and fibronectin immunostaining, tissues were fixed with 4% paraformaldehyde and stained with biotinylated mouse fibrin(ogen) antiserum (Nordic Immunological Laboratories) or a polyclonal anti-mouse fibronectin (Chemicon), followed by streptavidin Alexa 594 or anti-rabbit Alexa 594 (Molecular Probes), respectively. For peptide overlay, sections of frozen OCT embedded tissue were incubated with 10 μg/ml fluorescein-conjugated peptide for 30 min at room temperature. Tissue fluorescence was quantified using Image-Pro Plus software. At least two images from representative microscopic fields were analyzed from each tissue sample and data from individual mice that received the same treatment (n=2-8) were pooled.

Assay [1] has as its system human clinical breast cancers. Put plainly: Peptide overlay assay on frozen tumor sections. The format is binding. The note with it: two clinical breast cancers. Here is the method:
as §1, with “Calif.). The MMTV PyMT mice develop breast cancer under the influence of a polyoma middle T antigen driven by the mouse tumor virus promoter (Siegel, P. M., Ryan, E. D., Cardiff, R. D., Muller W. J. (1999) EMBO J., 18, 2149-64).” for “Calif.).”
as §2

The subject of the next assay is PPC1 xenograft tumor. Put plainly: Peptide overlay assay on frozen tumor sections. Conditions: PPC1 xenografts. The format is binding. How it is done: as §3
Assay [2] concerns mouse Lewis lung carcinoma. Put plainly: Peptide overlay assay on frozen tumor sections. In kind it is binding. Here is the method: as §3
Another assay deals with albumin (Homo sapiens, UniProt P02768). As to the kind of experiment: Aggregate formation in albumin solution (turbidity). In kind it is biochemical. The note with it: added to an albumin solution. From the text: CLT1 contains a sequence of three consecutive hydrophobic residues, LII (leucine-isoleucine-isoleucine). This motif is very similar to the VII sequence (V, valine) which causes proteins to form large insoluble aggregates (Esteras-Chopo et al. 2005). […] The ability of CLT1 to aggregate proteins correlates with its cytotoxicity for human umbilical venous endothelial cells (HUVECs).

On to “CGLIIQKNEC (also: cyclic, ring type not given here, fluorescein conjugate, site not given here) [CLT1, cyclic decapeptide from phage library screened on plasma clots; tested as fluorescein conjugate]”, for which the entries for the “homing to B16F1 tumors” value with B16F1 tumors (plasma fibronectin-deficient mice), in the assay on B16F1 tumors (wild type C57BL/6 mice) and in the assay with B16F1 tumors (wild type littermates of plasma fibronectin-deficient mice) were “negative”, “produce a fluorescent meshwork” and “homes”, respectively. In addition, the “co-localization of peptide fluorescence with fibrin staining” value in the assay on fibrin(ogen) is reported as “co-localized; also recorded: overlapping distribution”. Besides, the overlay binding result (in assay [1]; with PPC1 xenograft tumor) was “positive” each time. The “overlay binding in presence of control peptide” value in assay [2] (co-incubation with control peptide) is listed as “not by a control peptide”. For the same sequence, the “overlay binding in presence of unlabeled CLT peptide” value in assay [2] (co-incubation with unlabeled CLT1) was “inhibited; also recorded: eliminated”. Also, in assay [2] (fluorescein-conjugated peptide 10 μg/ml, 30 min), the “binding pattern in peptide overlay” value was “produced a fibrillar network”. The “aggregate formation in albumin solution” value in the assay with albumin is reported as “not amyloidogenic”.
